{"source": "patent US20230000852A1", "about": "“Treatment of Dermal Cytokine Storm Syndromes” (Bridge Pharma, Inc., priority 2021, published 2023)", "key": {"[1]": {"system": "IMQ-induced psoriasiform hypercytokinemia", "assay": "Imiquimod (IMQ) induced psoriasis in mice", "assay_type": "in vivo", "settings": "for Scratching bouts: Day 6, 30 minutes observation; for Total Scores ± SEM: cumulative erythema plus scaling plus thickness; for Mean Scores of Skin Lesions: Redness / Mean Scores of Skin Lesions: Scaling / Mean Scores of Skin Lesions: Thickness: scale 0 to 4", "excerpt": "The objective of this study was to assess the ability of NK to inhibit the IMQ-induced psoriasiform hypercytokinemia in mice. Topically applied IMQ is known to induce a psoriasis-like Cytokine Storm in mice by releasing a large number of cytokines, thereby causing a disease (hypercytokinemia) that is closely similar to psoriasis in human patients. Female BALB/c mice were used (8-11 weeks old; 4 animals/group). A psoriasiform skin condition was induced by repeated applications of an IMO-cream on the pre-shaved skin of the back of mice for 6 days, using […] 5% cream (IMQ-cream), at a dose of 62.5 mg per mouse, which is equal to 3.125 mg active per mouse. Starting from day 3 of dosing the skin was scored for Redness, Thickness and Scaling using a scoring system on the scale of 0 to 4, where 0=none; 1=slight; 2=moderate; 3=marked; and 4=very marked. The cumulative scores (erythema plus scaling plus thickness) served as a measure of the severity of dermal, psoriasis-like inflammation. […] A scratch bout was defined as one or more rapid back-and-forth hind paw motions directed toward and contacting the IMQ-treated area. • Group 1: (IMQ Positive Control Group): 4 mice were treated as described above. • Group 2: 4 mice were given NK 10 mg/kg/day, PO, starting 3 days before the first application of IMQ. • Group 3: same treatment as Group 2, but the dose of NK was 20 mg/kg/day. • Group 4: same treatment as Group 3, but the dose of NK was 30 mg/kg/day. ANOVA (Dunnett's Method)-positive control (IMQ) vs test groups. The methodology used here was the van der Fits (2009) method with minor modifications."}, "[2]": {"assay": "Dermal and plasma concentrations of NK after oral dosing to dogs", "assay_type": "in vivo", "description": "The purpose was to determine drug concentrations and calculate pharmacokinetics in the skin and plasma of dogs during and following daily oral administration of S-NK-HF (the S-isomer of norketotifen hydrogen fumarate) for four weeks.\nFive male beagle dogs, weighing 11.2-13.9 kg (2-4 years old) were included in the study. All animals were administered p.o. doses of the test article 8.0 mg/kg/day as a hydrogen fumarate salt, equal to 5.6 mg/kg/day of the free base. A single isomer of NK was used, since an objective of this study was also to assess the racemization of the NK isomers. The animals were dosed once daily for four weeks followed by daily observations and tissue sampling for an additional two-week washout period.\nMultiple plasma samples and skin biopsies were taken from each dog on Day 1 and Day 28 of drug administration. The plasma and skin samplings were performed at pre-dose, and at 2, 6, 12, and 24 hours post-dose. Plasma and skin samples were also taken intermittently at predetermined intervals during the 28-days dosing period and up to the last day of the study, which was Day 42. Blood samples were taken from v. cephalica antebrachii. Skin biopsies were taken from the area between the mid ventral to lateral abdominal areas, using a 6 mm skin biopsy punch. Subcutaneous fat deposits were carefully trimmed from the skin samples and the skin samples were then weighed. All plasma and skin samples were analyzed using LC/MS/MS methodology."}, "IL-6": {"system": "IL-6", "assay": "PHA-induced IL-6 release from human leucocytes (buffy coats)", "assay_type": "cell-based", "settings": "Leucocyte, 30 min pre-incubation, PHA 5 μg/ml 16 hours", "description": "(§1) The objective of this study was to assess the ability of norketotifen to inhibit cytokine release from stimulated human leucocytes.\n(§2) The study was conducted in two phases. The first phase included optimization of the test methodology and including dose-range finding studies, using buffy coats from 3 human donors, stimulated with phytohemagglutinin (PHA). Following optimization of the test conditions, a final protocol was issued. In the ensuing Main Study, white blood cells (buffy coats) from 5 healthy human donors were stimulated with PHA, 5 μg/ml. The concentrations of the test article and the duration of exposure were optimized to obtain acceptable dose-response ratios. Thus, the inhibitory effects of three concentrations of NK and one concentration of ketotifen were evaluated in the Main Study. The buffy coats containing white blood cells from 5 male human donors were resuspended in assay media and were pre-incubated for 30 min with either vehicle/saline, ketotifen 4.3 μg/ml (10 μM) and norketotifen 0.4 μg/ml, 4.1 μg/ml and 41 μg/ml (1.0; 10 and 100 μM). Following these preincubations, the white blood cells were stimulated for 16 hours with PHA, 5 μg/ml. The cell system supernatants were then harvested and stored frozen pending analyses.\n(§3) The concentration of the test articles had to be high in this ex vivo study since the test kit used a high concentration of the agonist PHA (5 μg/ml) and a long exposure time (16 hrs)."}, "sedation [3]": {"system": "sedation", "settings": "art-accepted mouse model of sedation; U.S. Pat. Nos. 7,226,934 and 7,557,128; cited from earlier work"}, "IL-1β": {"system": "IL-1β", "assay": "PHA-induced IL-1β release from human leucocytes (buffy coats)", "assay_type": "cell-based", "settings": "Leucocyte, 30 min pre-incubation, PHA 5 μg/ml 16 hours", "description": "as §1, §2, §3"}, "IL-2": {"system": "IL-2", "assay": "PHA-induced IL-2 release from human leucocytes (buffy coats)", "assay_type": "cell-based", "settings": "Leucocyte, 30 min pre-incubation, PHA 5 μg/ml 16 hours", "description": "as §1, §2, §3"}, "MIP-1a": {"system": "MIP-1a", "assay": "PHA-induced MIP-1a release from human leucocytes (buffy coats)", "assay_type": "cell-based", "settings": "Leucocyte, 30 min pre-incubation, PHA 5 μg/ml 16 hours", "description": "as §1, §2, §3"}, "TNFα": {"system": "TNFα", "assay": "PHA-induced TNFα release from human leucocytes (buffy coats)", "assay_type": "cell-based", "settings": "Leucocyte, 30 min pre-incubation, PHA 5 μg/ml 16 hours", "description": "as §1, §2, §3"}, "sedation [4]": {"system": "sedation", "settings": "humans, oral; U.S. Pat. Nos. 9,138,431 and 9,345,697; cited from earlier work"}, "IL-8": {"system": "IL-8", "assay": "PHA-induced IL-8 release from human leucocytes (buffy coats)", "assay_type": "cell-based", "settings": "Leucocyte, 30 min pre-incubation, PHA 5 μg/ml 16 hours", "description": "as §1, §2, §3"}, "IL-4": {"system": "IL-4", "assay": "PHA-induced IL-4 release from human leucocytes (buffy coats)", "assay_type": "cell-based", "settings": "Leucocyte, 30 min pre-incubation, PHA 5 μg/ml 16 hours", "description": "as §1, §2, §3"}}, "note": "Where two headings read alike, the source gives them in different places."}
{"molecule": "O=C1Cc2ccccc2C(=C2CCNCC2)c2ccsc21", "note": "(racemic) [NK, norketotifen]", "values": [{"measurement": "Scratching bouts", "setting": "[1]; NK 10 mg/kg/day PO from 3 days before IMQ", "result": 7.0}, {"measurement": "Total Scores ± SEM", "setting": "[1]; NK 10 mg/kg/day oral", "result": "1.5 ± 0.65"}, {"measurement": "Mean Scores of Skin Lesions: Redness", "setting": "[1]; NK 10 mg/kg/day oral", "result": 0.75}, {"measurement": "Mean Scores of Skin Lesions: Scaling", "setting": "[1]; NK 10 mg/kg/day oral", "result": 0.25}, {"measurement": "Mean Scores of Skin Lesions: Thickness", "setting": "[1]; NK 10 mg/kg/day oral", "result": 0.5}, {"measurement": "Scratching bouts", "setting": "[1]; NK 20 mg/kg/day PO from 3 days before IMQ", "result": 4.25}, {"measurement": "Total Scores ± SEM", "setting": "[1]; NK 20 mg/kg/day oral", "result": "0.5 ± 0.29"}, {"measurement": "Mean Scores of Skin Lesions: Redness", "setting": "[1]; NK 20 mg/kg/day oral", "result": 0.5}, {"measurement": "Mean Scores of Skin Lesions: Scaling", "setting": "[1]; NK 20 mg/kg/day oral", "result": 0}, {"measurement": "Mean Scores of Skin Lesions: Thickness", "setting": "[1]; NK 20 mg/kg/day oral", "result": 0}, {"measurement": "Total Scores ± SEM", "setting": "[1]; NK 30 mg/kg/day oral", "result": "0.33 ± 0.33"}, {"measurement": "Mean Scores of Skin Lesions: Redness", "setting": "[1]; NK 30 mg/kg/day oral", "result": 0.33}, {"measurement": "Mean Scores of Skin Lesions: Scaling", "setting": "[1]; NK 30 mg/kg/day oral", "result": 0}, {"measurement": "Mean Scores of Skin Lesions: Thickness", "setting": "[1]; NK 30 mg/kg/day oral", "result": 0}, {"measurement": "Inhibition of psoriasis-related cytokine storm (in words)", "setting": "[1]; antipruritic activity and redness, thickness, scaling scores", "result": "almost completely inhibited"}, {"measurement": "Effect on scratching in mice (in words)", "setting": "[1]; oral NK, not statistically significant (p>0.05)", "result": "dose-dependent effect"}, {"measurement": "half-life", "setting": "[2]; male, beagle, dog, plasma, oral, 8 mg/kg/day, plasma, read-out: Plasma half-life", "result": "10 to 11", "unit": "h"}, {"measurement": "half-life", "setting": "[2]; male, beagle, dog, plasma, po, 8 mg/kg/day, oral S-NK 8.0 mg/kg/day for 28 days, dogs (N = 5), plasma, read-out: T1/2 Plasma (converted)", "result": 10.5, "unit": "h"}, {"measurement": "half-life", "setting": "[2]; male, beagle, dog, skin, oral, 8 mg/kg/day, skin, read-out: Dermal half-life (duration of high concentration in the skin)", "result": "≤ 168", "unit": "h"}, {"measurement": "Kp", "setting": "[2]; male, beagle, dog, skin, oral, 8 mg/kg/day, under laboratory conditions, read-out: Skin concentration relative to plasma concentration", "result": "≤ 16"}, {"measurement": "half-life", "setting": "[2]; male, beagle, dog, skin, po, 8 mg/kg/day, oral S-NK 8.0 mg/kg/day for 28 days, dogs (N = 5), skin, read-out: T1/2 Skin (converted)", "result": 168, "unit": "h"}, {"measurement": "MRT", "setting": "[2]; male, beagle, dog, oral S-NK 8.0 mg/kg/day for 28 days, dogs (N = 5), plasma, read-out: MRT Plasma", "result": 12.8, "unit": "h"}, {"measurement": "MRT", "setting": "[2]; male, beagle, dog, oral S-NK 8.0 mg/kg/day for 28 days, dogs (N = 5), skin, read-out: MRT Skin", "result": 169, "unit": "h"}, {"measurement": "AUC∞ Plasma", "setting": "[2]; oral S-NK 8.0 mg/kg/day for 28 days, dogs (N = 5), plasma", "result": "3286 ng*hr/mL or g"}, {"measurement": "AUC∞ Skin", "setting": "[2]; oral S-NK 8.0 mg/kg/day for 28 days, dogs (N = 5), skin", "result": "54187 ng*hr/mL or g"}, {"measurement": "Dermal half-life in skin of dogs (in words)", "setting": "[2]; skin of dogs", "result": "one week"}, {"measurement": "inhibition at 1 µM", "setting": "IL-6; 1 uM", "result": 0, "unit": "%"}, {"measurement": "inhibition at 10 µM", "setting": "IL-6; 10 uM", "result": 33.1, "unit": "%"}, {"measurement": "inhibition at 100 µM", "setting": "IL-6; 100 uM", "result": 88.2, "unit": "%"}, {"measurement": "Sedative effects", "setting": "sedation [3]", "result": "significant sedative effects"}, {"measurement": "inhibition at 1 µM", "setting": "IL-1β; 1 uM", "result": 0, "unit": "%"}, {"measurement": "inhibition at 10 µM", "setting": "IL-1β; 10 uM", "result": 16.2, "unit": "%"}, {"measurement": "inhibition at 100 µM", "setting": "IL-1β; 100 uM", "result": 57, "unit": "%"}, {"measurement": "inhibition at 1 µM", "setting": "IL-2; 1 uM", "result": 0, "unit": "%"}, {"measurement": "inhibition at 10 µM", "setting": "IL-2; 10 uM", "result": 46.6, "unit": "%"}, {"measurement": "inhibition at 100 µM", "setting": "IL-2; 100 uM", "result": 93.5, "unit": "%"}, {"measurement": "inhibition at 1 µM", "setting": "MIP-1a; 1 uM", "result": 9.53, "unit": "%"}, {"measurement": "inhibition at 10 µM", "setting": "MIP-1a; 10 uM", "result": 25.9, "unit": "%"}, {"measurement": "inhibition at 100 µM", "setting": "MIP-1a; 100 uM", "result": 91, "unit": "%"}, {"measurement": "inhibition at 1 µM", "setting": "TNFα; 1 uM", "result": 4.54, "unit": "%"}, {"measurement": "inhibition at 10 µM", "setting": "TNFα; 10 uM", "result": 42.2, "unit": "%"}, {"measurement": "inhibition at 100 µM", "setting": "TNFα; 100 uM", "result": 89.1, "unit": "%"}, {"measurement": "Sedative side effects", "setting": "sedation [4]", "result": "free from sedative side effects"}, {"measurement": "inhibition at 1 µM", "setting": "IL-8; 1 uM", "result": 10.3, "unit": "%"}, {"measurement": "inhibition at 10 µM", "setting": "IL-8; 10 uM", "result": 34.4, "unit": "%"}, {"measurement": "inhibition at 100 µM", "setting": "IL-8; 100 uM", "result": 78.3, "unit": "%"}, {"measurement": "inhibition at 1 µM", "setting": "IL-4; 1 uM", "result": 0, "unit": "%"}, {"measurement": "inhibition at 10 µM", "setting": "IL-4; 10 uM", "result": 14.3, "unit": "%"}, {"measurement": "inhibition at 100 µM", "setting": "IL-4; 100 uM", "result": 98.3, "unit": "%"}]}
